Test results as given in patent US20180340008A1, “ANTIBIOTIC OLIGOPEPTIDE MIMETICS” (priority 2017, published 2018).
Counter-ions that a name gives are not always drawn. Non-standard residues stand in square brackets, D forms with d. Residues, ends and D or L forms follow the SMILES beside them. ξ: configuration not given here. *: point of attachment. ξW = NC(Cc1c[nH]c2ccccc12)C(=O)O; NHOH = ON*

System: E. coli (ATTC 8739)
Assay: Zone of inhibition test in Petri dish
Type: cell-based
Description: Compound A was tested against L-phenylalanine-(S)-2-amino-N-hydroxy-4-(methylthio)butanamide hydrochloride (Example 3) in a side-by-side comparison in a conventional zone of inhibition test. In this test, both compounds were compared at various concentrations against E. coli (ATTC 8739) grown in a Petri dish using the antibiotic kanamycin as a control.

For `CSCC[C@H](NC(=O)C(N)Cc1c[nH]c2ccccc12)C(=O)NO` (stereo partly drawn) [Example 3, L-Tryptophan-(S)-2-amino-N-hydroxy-4-(methylthio)butanamide hydrochloride] (H-[ξW]-Met-{NHOH}), which “concentration at which a zone of inhibition was shown” value (Petri dish, kanamycin control, FIG. 1A/1B) is on record?
The value was 12.5 µg.

And the “strength of zone of inhibition compared with cpd. A at 50 μg” value (at 12.5 μg)?
Its value is “substantially stronger”.

For `CSCC[C@H](NC(=O)CN)C(=O)NO` [Compound A, reference compound], which “strength of zone of inhibition” value (at 50 μg) is on record?
Its value is “quite weak”.
